Data reported in the NIST ThermoML archive (doi:10.1021/je060271a).

Settings: 303.15 K, Liquid, Vibrating tube method

CCCCCCCC(=O)OCC(COC(=O)CCCCCCC)(COC(=O)CCCCCCC)COC(=O)CCCCCCC [pentaerythritol tetraoctanoate]
Settings	mass density [kg/m3]
11935 kPa	962.6
11965 kPa	962.7
11996 kPa	962.7
12028 kPa	962.7
12059 kPa	962.7
12086 kPa	962.8
12118 kPa	962.8
12150 kPa	962.8
12183 kPa	962.8
12208 kPa	962.8
12241 kPa	962.9
12274 kPa	962.8
12307 kPa	962.8
12340 kPa	962.9
12368 kPa	963
12402 kPa	962.9
12436 kPa	963
12470 kPa	963.1
12499 kPa	963.1
12533 kPa	962.9
12568 kPa	963
12603 kPa	963
12633 kPa	963.1
12668 kPa	963.1
12704 kPa	963.1
12734 kPa	963.1
12770 kPa	963.2
12805 kPa	963.2
12841 kPa	963.2
12878 kPa	963.1
12916 kPa	963.2
12947 kPa	963.3
12985 kPa	963.3
13022 kPa	963.3
13059 kPa	963.3
13090 kPa	963.4
13128 kPa	963.3
13167 kPa	963.4
13200 kPa	963.3
13240 kPa	963.3
13279 kPa	963.6
13308 kPa	963.5
13346 kPa	963.4
13386 kPa	963.5
13427 kPa	963.6
13468 kPa	963.5
13501 kPa	963.7
13542 kPa	963.6
13577 kPa	963.5
13611 kPa	963.7
13693 kPa	963.7
13813 kPa	963.7
13941 kPa	963.8
13985 kPa	963.8
14067 kPa	964
14112 kPa	964
14142 kPa	964
14187 kPa	964
14240 kPa	964.1
14286 kPa	964.1
14332 kPa	964.1
14371 kPa	964.1
14417 kPa	964.1
14464 kPa	964.1
14512 kPa	964.2
14551 kPa	964.1
14598 kPa	964.1
14647 kPa	964.2
14697 kPa	964.3
14737 kPa	964.2
14787 kPa	964.4
14836 kPa	964.4
14887 kPa	964.3
14930 kPa	964.3
14981 kPa	964.5
15031 kPa	964.5
15083 kPa	964.5
15135 kPa	964.5
15179 kPa	964.6
15234 kPa	964.6
15288 kPa	964.5
15341 kPa	964.7
15388 kPa	964.7
15447 kPa	964.7
15495 kPa	964.8
15554 kPa	964.8
15616 kPa	964.9
15669 kPa	964.9
15728 kPa	964.9
15758 kPa	964.9
15786 kPa	964.9
15815 kPa	965
15840 kPa	964.9
15869 kPa	964.9
15894 kPa	964.9
15923 kPa	964.9
15952 kPa	965.1
15978 kPa	965
16008 kPa	965.1
16032 kPa	965.1
16062 kPa	965.2
16092 kPa	965.1
16117 kPa	965.2
16148 kPa	965.1
16173 kPa	965.1
16205 kPa	965.1
16230 kPa	965.1
16261 kPa	965.2
16288 kPa	965.2
16319 kPa	965.2
16349 kPa	965.2
16375 kPa	965.3
16407 kPa	965.4
16433 kPa	965.3
16465 kPa	965.2
16496 kPa	965.2
16523 kPa	965.3
16556 kPa	965.3
16586 kPa	965.4
16613 kPa	965.4
16645 kPa	965.4
16672 kPa	965.4
16704 kPa	965.3
16737 kPa	965.5
16764 kPa	965.4
16798 kPa	965.5
16825 kPa	965.4
16853 kPa	965.5
16875 kPa	965.6
16908 kPa	965.6
16952 kPa	965.6
16982 kPa	965.7
17016 kPa	965.6
17044 kPa	965.6
17078 kPa	965.6
17112 kPa	965.7
17141 kPa	965.7
17175 kPa	965.7
17209 kPa	965.7
17238 kPa	965.9
17272 kPa	965.8
17302 kPa	965.9
17339 kPa	965.8
17367 kPa	965.9
17402 kPa	965.8
17434 kPa	965.9
17468 kPa	965.9
17504 kPa	966
